This is an account of results in publication PMC8550792, “Evolution of kinase polypharmacology across HSP90 drug discovery” (Cell Chemical Biology, 2021).

Common to all, as to assay: biochemical
Holding throughout (assay type): biochemical

Test [1] has as its target T1, 382 unique human kinases (Homo sapiens, UniProt P23443).
T1 construct: purchased Reaction Biology (HotSpot contract assay)
The settings on record: kinase p70S6K/RPS6KB1, compound 10 uM; for remaining activity at 10 µM: read-out: % Enzyme Activity (relative to DMSO controls).

Test [2] has as its target T2, 382 unique human kinases (Homo sapiens, UniProt Q9NYY3).
T2 construct: purchased Reaction Biology (HotSpot contract assay)
The note with it: kinase PLK2, compound 10 uM; for remaining activity at 10 µM: read-out: % Enzyme Activity (relative to DMSO controls).

Test [3] addresses T3, 382 unique human kinases (Homo sapiens, UniProt P10721, V559A).
T3 construct: purchased Reaction Biology (HotSpot contract assay)
The note with it: c-Kit (V559A), [ATP] 100 µM, compound 10 uM; for remaining activity at 10 µM: read-out: % Enzyme Activity (relative to DMSO controls).

In test [4] the target is T4, 382 unique human kinases (Homo sapiens, UniProt Q9UEE5).
T4 construct: purchased Reaction Biology (HotSpot contract assay)
T4 sequence (Q9UEE5 1-414): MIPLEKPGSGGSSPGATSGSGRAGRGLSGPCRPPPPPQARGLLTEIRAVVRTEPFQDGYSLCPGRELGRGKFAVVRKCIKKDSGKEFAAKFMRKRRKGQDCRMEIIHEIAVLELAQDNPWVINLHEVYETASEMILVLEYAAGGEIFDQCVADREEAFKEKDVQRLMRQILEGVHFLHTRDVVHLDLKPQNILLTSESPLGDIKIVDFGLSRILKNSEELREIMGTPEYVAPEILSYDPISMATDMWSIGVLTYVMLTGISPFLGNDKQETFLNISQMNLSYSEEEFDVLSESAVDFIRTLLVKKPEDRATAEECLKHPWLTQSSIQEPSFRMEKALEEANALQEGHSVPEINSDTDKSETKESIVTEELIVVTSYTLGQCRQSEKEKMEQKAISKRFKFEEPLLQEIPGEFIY
The settings on record: DRAK1/STK17A, 10 uM; for remaining activity at 10 µM: read-out: % Enzyme Activity (relative to DMSO controls).

In test [5] the target is T5, 382 unique human kinases (Homo sapiens, UniProt Q08881).
T5 construct: purchased Reaction Biology (HotSpot contract assay)
T5 sequence (Q08881 1-620): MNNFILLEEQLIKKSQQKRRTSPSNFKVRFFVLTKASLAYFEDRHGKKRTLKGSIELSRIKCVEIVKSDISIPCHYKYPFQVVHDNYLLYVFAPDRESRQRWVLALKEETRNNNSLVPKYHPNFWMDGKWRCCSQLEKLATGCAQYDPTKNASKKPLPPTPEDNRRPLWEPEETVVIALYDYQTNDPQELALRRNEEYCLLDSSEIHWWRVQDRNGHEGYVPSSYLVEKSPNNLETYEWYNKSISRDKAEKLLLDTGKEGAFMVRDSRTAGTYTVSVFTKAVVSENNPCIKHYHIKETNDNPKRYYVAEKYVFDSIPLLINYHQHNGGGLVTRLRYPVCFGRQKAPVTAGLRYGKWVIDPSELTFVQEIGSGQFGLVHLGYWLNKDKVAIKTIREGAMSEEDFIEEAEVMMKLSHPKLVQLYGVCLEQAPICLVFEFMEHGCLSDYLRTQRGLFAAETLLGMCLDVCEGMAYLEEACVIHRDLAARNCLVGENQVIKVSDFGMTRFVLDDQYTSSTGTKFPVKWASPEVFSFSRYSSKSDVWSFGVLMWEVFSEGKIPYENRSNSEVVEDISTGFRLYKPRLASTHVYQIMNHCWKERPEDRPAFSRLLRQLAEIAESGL
The settings on record: ITK, 10 uM; for remaining activity at 10 µM: read-out: % Enzyme Activity (relative to DMSO controls).

Test [6] deals with T6, 382 unique human kinases (Homo sapiens, UniProt P35626).
T6 construct: purchased Reaction Biology (HotSpot contract assay)
T6 sequence (P35626 1-688): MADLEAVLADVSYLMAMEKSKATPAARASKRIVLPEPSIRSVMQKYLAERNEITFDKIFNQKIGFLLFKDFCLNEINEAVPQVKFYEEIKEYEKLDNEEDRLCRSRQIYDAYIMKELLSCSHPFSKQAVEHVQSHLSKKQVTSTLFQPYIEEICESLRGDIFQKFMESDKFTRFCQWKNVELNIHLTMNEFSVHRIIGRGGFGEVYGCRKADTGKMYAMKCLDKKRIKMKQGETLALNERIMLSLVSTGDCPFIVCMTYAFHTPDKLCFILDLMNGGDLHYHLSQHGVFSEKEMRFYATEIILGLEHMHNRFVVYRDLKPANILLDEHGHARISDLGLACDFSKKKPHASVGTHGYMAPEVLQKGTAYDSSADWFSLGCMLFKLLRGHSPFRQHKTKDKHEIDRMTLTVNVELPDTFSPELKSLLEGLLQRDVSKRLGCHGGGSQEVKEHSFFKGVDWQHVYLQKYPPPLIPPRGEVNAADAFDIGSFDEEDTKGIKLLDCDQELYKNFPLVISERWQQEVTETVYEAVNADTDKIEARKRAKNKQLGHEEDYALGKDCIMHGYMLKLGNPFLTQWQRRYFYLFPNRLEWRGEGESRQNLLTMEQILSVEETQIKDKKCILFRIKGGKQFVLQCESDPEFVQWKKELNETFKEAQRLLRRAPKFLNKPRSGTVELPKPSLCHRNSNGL
The note with it: GRK3, 10 uM; for remaining activity at 10 µM: read-out: % Enzyme Activity (relative to DMSO controls).

T2 sequence (Q9NYY3 whole entry): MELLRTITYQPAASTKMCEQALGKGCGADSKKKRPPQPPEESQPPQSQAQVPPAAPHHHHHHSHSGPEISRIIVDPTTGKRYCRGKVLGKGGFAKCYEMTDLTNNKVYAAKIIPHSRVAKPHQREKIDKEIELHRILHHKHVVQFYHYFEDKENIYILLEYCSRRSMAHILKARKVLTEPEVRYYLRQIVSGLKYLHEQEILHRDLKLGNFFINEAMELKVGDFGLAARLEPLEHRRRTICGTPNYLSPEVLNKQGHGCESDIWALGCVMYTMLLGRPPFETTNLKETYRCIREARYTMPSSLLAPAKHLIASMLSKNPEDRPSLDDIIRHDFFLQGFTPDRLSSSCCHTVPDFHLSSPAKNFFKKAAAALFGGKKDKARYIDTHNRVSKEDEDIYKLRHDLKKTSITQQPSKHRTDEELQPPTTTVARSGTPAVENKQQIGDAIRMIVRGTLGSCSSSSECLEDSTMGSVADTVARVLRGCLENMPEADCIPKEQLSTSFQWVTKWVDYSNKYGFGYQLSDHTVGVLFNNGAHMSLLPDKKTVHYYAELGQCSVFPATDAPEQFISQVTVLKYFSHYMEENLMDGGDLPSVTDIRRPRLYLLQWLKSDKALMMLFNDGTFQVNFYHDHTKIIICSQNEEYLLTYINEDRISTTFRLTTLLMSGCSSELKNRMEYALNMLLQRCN
T1 sequence (P23443 whole entry): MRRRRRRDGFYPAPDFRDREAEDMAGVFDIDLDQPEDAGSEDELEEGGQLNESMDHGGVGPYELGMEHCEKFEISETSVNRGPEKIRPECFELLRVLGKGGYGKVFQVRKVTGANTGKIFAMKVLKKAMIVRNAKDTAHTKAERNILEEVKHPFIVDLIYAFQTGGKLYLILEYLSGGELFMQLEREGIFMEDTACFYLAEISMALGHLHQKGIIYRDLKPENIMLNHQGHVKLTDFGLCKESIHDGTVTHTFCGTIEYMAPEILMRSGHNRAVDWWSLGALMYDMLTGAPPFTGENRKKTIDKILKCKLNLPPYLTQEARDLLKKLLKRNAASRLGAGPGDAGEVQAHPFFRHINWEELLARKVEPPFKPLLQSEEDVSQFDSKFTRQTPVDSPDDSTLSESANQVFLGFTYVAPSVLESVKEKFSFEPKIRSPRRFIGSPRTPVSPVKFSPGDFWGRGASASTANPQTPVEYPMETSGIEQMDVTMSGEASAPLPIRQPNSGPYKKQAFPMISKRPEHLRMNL
T3 sequence (P10721 26-976 V559A): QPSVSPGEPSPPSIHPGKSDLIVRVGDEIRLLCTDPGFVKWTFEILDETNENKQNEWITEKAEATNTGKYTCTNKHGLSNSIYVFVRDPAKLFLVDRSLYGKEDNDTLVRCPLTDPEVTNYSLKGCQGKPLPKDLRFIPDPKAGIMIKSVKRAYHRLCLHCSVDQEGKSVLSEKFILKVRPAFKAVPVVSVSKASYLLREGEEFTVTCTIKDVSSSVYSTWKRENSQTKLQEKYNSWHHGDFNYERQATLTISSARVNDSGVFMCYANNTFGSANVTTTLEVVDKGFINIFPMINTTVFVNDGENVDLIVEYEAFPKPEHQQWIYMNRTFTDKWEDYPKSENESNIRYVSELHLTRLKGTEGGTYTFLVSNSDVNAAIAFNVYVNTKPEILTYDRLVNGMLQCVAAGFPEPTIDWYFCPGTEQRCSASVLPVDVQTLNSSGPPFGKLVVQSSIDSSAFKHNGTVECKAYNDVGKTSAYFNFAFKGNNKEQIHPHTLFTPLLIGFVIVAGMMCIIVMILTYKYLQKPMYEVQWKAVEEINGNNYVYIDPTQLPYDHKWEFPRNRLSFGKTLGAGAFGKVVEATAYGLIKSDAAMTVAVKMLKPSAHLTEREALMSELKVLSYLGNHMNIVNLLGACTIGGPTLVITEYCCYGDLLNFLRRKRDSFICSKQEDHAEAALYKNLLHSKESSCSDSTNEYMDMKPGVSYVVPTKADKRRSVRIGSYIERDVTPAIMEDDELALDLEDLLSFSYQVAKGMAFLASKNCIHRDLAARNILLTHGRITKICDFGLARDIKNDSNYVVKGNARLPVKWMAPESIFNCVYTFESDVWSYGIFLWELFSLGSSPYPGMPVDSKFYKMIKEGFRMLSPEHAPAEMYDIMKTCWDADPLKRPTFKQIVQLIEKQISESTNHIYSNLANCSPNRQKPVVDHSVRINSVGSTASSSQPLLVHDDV

Turning to `CC(C)c1cc(-c2n[nH]c(=O)n2-c2ccc3c(ccn3C)c2)c(O)cc1O` [Ganetespib (STA9090)], the remaining activity at 10 µM in test [1] came to 91.3%; in test [2], 86.1%.

For the compound `CC(C)c1cc(-c2n[nH]c(=O)n2-c2ccc3c(ccn3C)c2)c(O)cc1O` [Ganetespib], the remaining activity at 10 µM in test [3] was 43.9%; in test [4], 106%; in test [5], 95.6%; in test [6], 109%.

As to `CCNC(=O)c1noc(-c2cc(C(C)C)c(O)cc2O)c1-c1ccc(CN2CCOCC2)cc1` [Luminespib (AUY-922)], in test [1], the “% Enzyme Activity (relative to DMSO controls)” value is reported as 107.14% and the remaining activity at 10 µM stood at 107%. In addition, in test [2], the “% Enzyme Activity (relative to DMSO controls)” value is reported as 105.08% and the remaining activity at 10 µM came out at 106%.

Take `CCNC(=O)c1noc(-c2cc(C(C)C)c(O)cc2O)c1-c1ccc(CN2CCOCC2)cc1` [Luminespib]: the “% Enzyme Activity (relative to DMSO controls)” value in test [3] was 61.54%; in test [4] it was 99.90%; in test [5], 92.96%; in test [6] it was 96.02%. The remaining activity at 10 µM in test [3] stood at 61.6%; in test [4], 99.9%; in test [5] it was 94.1%; in test [6], 97.9%.
